Assay results: ChEMBL document CHEMBL4393679, “Structure-Guided Drug Design of 6-Substituted Adenosine Analogues as Potent Inhibitors of Mycobacterium tuberculosis Adenosine Kinase” (J Med Chem, 2019)

Tests used:
Type in all cases: functional
[1] = system: Mycobacterium tuberculosis; test: Antimycobacterial activity against Mycobacterium tuberculosis H37Rv harboring D251N mutant by microplate alamar blue assay
[2] = system: Mycobacterium tuberculosis; test: Antimycobacterial activity against Mycobacterium tuberculosis H37Rv harboring Q172P mutant by microplate alamar blue assay
[3] = system: Mycobacterium tuberculosis; test: Antimycobacterial activity against Mycobacterium tuberculosis H37Rv harboring G262S mutant by microplate alamar blue assay

Measured: MIC

Nc1ncnc2c1c(I)cn2[C@@H]1O[C@H](CO)[C@@H](O)[C@H]1O [IODOTUBERCIDIN]
>100 µM: all assays above
